In US20130011480A1, “CYTOTOXIC THERAPY BY PROTON FLUX MODULATION” (priority 2011, published 2013):
Structures can show the parent of a compound that is named as a salt. Where two headings read alike, the source gives them in different places.

Experiments:
[1] = tested on: human melanoma; details: well-tolerated doses; cited from earlier work
[2] = tested on: hepatoblastoma cells; details: morphological observations and flow cytometry; cited from earlier work
[3] = tested on: normal human hepatic cells; details: treated versus untreated cells; cited from earlier work
[4] = raises metabolic rate and promotes weight loss; cited from earlier work
[5] = tested on: isolated normal rat hepatocyte; details: 72 hours' treatment; read-out: 50% inhibitory concentrations (IC(50)); cited from earlier work
[6] = tested on: subcutaneous xenografted Huh-7 cells; details: 1 or 10 mg/kg/d subcutaneously, 2 weeks, cited from earlier work
[7] = tested on: Huh-7 cells; details: cited from earlier work
[8] = tested on: K+ channels; details: 100-500 μM; cited from earlier work
[9] = tested on: Na+-independent Cl−/HCO3− exchange; details: cited from earlier work
[10] = tested on: high-voltage-activated Ca2+ channels; details: hippocampal CA1 neurons; cited from earlier work
[11] = tested on: CA3 neurons; details: cited from earlier work
[12] = tested on: CA3 neurons; details: 50 μM; CO2/HCO3−-buffered; cited from earlier work
[13] = target: T1, N-type Ca2+ channel (Homo sapiens, UniProt Q00975); details: calculated for 50 μM; cited from earlier work
T1 construct: N-type Ca2+ channels of hippocampal CA1 neurons; host or cells: hippocampal CA1 neurons
T1 sequence (Q00975 whole entry): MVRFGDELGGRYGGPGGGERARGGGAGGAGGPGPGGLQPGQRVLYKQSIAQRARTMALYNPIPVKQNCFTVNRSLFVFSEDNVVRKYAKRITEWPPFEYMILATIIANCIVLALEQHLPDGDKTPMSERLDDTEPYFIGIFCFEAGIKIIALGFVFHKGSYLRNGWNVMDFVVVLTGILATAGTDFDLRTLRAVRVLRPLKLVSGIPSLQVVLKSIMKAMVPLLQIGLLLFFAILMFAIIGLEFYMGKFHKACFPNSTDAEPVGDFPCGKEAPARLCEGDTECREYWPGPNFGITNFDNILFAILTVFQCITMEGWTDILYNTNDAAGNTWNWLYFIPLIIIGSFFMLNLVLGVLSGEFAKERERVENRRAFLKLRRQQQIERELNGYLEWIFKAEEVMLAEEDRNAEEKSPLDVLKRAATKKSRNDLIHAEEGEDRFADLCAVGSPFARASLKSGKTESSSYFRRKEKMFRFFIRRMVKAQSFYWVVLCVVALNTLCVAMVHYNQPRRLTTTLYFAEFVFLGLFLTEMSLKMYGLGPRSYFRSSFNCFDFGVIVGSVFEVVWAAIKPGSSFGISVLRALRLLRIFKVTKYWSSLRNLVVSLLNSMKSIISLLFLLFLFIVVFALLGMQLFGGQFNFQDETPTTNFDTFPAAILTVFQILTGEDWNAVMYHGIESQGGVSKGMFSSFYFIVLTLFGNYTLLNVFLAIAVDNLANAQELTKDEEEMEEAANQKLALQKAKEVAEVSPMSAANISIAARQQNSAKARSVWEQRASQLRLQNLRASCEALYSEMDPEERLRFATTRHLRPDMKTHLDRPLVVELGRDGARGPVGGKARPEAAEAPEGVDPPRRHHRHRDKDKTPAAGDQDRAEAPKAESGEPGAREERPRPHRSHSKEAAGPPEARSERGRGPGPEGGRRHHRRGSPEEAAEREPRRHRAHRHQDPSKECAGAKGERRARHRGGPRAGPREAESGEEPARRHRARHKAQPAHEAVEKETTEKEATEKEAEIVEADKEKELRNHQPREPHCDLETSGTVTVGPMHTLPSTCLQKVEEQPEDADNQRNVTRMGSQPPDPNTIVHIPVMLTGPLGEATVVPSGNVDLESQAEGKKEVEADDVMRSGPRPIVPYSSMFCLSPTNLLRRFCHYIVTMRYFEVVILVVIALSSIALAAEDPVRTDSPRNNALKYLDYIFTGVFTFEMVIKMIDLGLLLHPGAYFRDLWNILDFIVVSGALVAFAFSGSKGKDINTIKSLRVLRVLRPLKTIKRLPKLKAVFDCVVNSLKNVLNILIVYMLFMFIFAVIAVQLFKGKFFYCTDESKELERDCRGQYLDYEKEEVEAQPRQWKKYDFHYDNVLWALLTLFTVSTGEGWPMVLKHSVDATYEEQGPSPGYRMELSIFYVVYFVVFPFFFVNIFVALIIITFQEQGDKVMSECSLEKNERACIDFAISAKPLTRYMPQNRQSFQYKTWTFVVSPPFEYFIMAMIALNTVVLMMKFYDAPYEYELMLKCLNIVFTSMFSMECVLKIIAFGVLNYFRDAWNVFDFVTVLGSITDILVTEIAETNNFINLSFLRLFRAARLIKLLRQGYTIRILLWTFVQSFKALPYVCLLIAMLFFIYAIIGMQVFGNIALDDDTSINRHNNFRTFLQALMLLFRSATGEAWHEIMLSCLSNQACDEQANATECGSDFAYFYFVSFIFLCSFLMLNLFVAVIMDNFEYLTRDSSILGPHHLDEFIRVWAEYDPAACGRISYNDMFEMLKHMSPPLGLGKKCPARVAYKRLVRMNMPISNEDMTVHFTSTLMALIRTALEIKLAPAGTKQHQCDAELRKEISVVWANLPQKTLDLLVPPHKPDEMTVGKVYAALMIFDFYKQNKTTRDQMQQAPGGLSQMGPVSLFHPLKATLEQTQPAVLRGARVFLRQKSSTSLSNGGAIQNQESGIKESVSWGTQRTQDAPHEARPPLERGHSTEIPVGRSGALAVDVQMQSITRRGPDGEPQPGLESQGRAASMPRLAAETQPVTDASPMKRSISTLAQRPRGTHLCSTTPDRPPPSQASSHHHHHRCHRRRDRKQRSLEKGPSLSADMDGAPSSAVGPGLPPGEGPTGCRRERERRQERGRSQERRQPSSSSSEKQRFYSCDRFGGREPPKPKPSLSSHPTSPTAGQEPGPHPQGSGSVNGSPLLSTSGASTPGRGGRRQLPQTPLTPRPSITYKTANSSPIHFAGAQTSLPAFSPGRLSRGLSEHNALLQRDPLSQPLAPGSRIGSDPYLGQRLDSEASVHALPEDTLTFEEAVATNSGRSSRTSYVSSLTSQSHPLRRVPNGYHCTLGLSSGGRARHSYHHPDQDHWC

[14] = target: proton pump (Homo sapiens, UniProt P20648); details: compared with classical PPIs; cited from earlier work
proton pump, sequence (P20648 whole entry): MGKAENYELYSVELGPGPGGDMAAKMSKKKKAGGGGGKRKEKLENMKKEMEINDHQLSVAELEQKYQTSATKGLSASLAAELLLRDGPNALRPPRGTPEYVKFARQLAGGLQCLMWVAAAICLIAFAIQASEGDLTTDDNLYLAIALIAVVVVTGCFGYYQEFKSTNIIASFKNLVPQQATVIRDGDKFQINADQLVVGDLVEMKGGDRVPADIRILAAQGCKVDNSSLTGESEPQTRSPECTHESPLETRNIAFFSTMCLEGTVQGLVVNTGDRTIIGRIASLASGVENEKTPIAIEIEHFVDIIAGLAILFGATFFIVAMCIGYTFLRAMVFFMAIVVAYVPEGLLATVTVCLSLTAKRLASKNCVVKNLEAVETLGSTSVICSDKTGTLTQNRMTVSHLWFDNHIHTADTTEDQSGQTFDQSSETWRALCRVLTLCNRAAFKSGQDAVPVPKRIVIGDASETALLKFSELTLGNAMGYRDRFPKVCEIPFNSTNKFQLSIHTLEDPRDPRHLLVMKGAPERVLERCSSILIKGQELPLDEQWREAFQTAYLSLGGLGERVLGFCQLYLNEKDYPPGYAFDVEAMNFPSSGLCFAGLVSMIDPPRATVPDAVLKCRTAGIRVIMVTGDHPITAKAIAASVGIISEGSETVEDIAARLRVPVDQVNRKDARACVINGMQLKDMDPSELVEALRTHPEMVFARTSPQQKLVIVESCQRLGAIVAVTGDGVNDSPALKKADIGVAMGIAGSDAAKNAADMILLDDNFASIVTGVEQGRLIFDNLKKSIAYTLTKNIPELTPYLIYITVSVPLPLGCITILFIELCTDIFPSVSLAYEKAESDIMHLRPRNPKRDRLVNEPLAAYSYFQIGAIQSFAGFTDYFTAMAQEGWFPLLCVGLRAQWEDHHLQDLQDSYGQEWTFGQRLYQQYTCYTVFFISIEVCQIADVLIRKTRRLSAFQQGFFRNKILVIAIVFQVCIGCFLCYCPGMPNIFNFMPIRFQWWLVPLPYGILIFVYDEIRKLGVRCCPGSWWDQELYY
proton pump, sequence (P51164 whole entry partner): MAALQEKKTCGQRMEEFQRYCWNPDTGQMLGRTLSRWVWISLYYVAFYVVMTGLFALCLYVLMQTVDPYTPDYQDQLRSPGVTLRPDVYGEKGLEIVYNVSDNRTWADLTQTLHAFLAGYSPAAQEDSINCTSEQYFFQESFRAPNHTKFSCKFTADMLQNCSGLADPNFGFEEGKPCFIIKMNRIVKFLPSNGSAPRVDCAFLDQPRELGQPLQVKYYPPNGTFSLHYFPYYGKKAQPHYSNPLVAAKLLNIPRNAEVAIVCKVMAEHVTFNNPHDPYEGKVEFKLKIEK

[15] = Cancer patients treated orally with acid-efflux inhibitor combinations: side effects; format: in vivo, human
Method: Patients have been treated orally with a combination of drugs that inhibit the efflux of acid (H+, CO2, and/or lactic acid). Although these drugs tend to alkalinize the extracellular milieu of cancer cells, they may be administered in combinations that achieve a metabolic acidosis.
Esomeprazole (vacuolar H+ ATPase pump inhibitor) was used either daily or every other day, with a dose ranging from 240 mg per day up to 320 mg per day, or more.
Methazolamide (a carbonic anhydrase inhibitor) was used every other day with a dose ranging from 50 mg per day up to a maximum of 400 mg per day. […] Side effects were especially noticeable in a patient with elevated liver function tests due to metastatic disease to the liver.
Amiloride (Na−H+ exchanger inhibitor and an inhibitor of urokinase plasminogen activator) was used daily at a dose of 20 mg per day, or more. Because amiloride is a potassium-sparing diuretic, with a propensity to cause hyperkalemia, HCTZ, at 25 mg 2 times per day was administered as well. In addition, the use of amiloride in combination with HCTZ has shown to inhibit metastases more effectively than when amiloride is used alone.
NaHCO3 (Arm & Hammer Baking Soda) was used daily, in some cases, at a dose ranging from 5 grams to 30 grams per day, or more.
Intravenous lactate and/or glucose (with or without insulin) are useful for potentiating this therapy. […]

[16] = tested on: human breast cancer; details: chronic oral administration; cited from earlier work
[17] = tested on: human melanoma; details: preadministration; cited from earlier work
[18] = target: NHE1 (Homo sapiens, UniProt P19634); details: NHE1 inhibition; cited from earlier work
NHE1, sequence (P19634 whole entry, species assumed): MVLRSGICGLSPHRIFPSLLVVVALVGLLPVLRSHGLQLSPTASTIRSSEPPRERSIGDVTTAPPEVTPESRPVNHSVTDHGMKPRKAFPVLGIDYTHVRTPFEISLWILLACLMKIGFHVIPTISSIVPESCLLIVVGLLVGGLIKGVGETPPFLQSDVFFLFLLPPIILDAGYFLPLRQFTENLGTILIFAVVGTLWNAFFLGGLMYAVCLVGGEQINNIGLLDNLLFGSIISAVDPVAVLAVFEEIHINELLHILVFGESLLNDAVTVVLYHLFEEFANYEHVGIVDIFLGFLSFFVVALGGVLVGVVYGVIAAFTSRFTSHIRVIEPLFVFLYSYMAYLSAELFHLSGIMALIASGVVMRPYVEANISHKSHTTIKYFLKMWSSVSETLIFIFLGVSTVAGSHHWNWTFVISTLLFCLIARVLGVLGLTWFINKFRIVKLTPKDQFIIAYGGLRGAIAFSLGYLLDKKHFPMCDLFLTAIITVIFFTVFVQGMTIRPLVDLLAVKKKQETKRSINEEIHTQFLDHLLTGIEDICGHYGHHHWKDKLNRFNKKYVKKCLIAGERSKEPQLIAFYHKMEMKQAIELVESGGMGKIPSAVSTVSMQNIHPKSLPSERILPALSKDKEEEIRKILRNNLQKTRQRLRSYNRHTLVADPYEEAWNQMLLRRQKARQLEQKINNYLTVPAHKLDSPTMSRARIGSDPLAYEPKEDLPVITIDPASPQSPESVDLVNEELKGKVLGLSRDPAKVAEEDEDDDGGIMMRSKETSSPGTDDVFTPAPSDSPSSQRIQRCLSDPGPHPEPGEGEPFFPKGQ

[19] = as low as; dose dependent; cited from earlier work

SMILES: COc1ccc2nc([S@@+]([O-])Cc3ncc(C)c(OC)c3C)[nH]c2c1 [esomeprazole, Esomeprazole]
- tumor growth and survival [1]: markedly impede tumor growth and prolong survival

SMILES: CO/C1=C\C(C)=C\[C@@H](C)[C@@H](O)[C@@H](C)C/C(C)=C/C=C/[C@H](OC)[C@@H]([C@@H](C)[C@@H](O)[C@H](C)[C@@]2(O)C[C@@H](O)[C@H](C)[C@@H](C(C)C)O2)OC1=O [Baf-A1, Bafilomycin A1]
- cellular reproduction and apoptosis [2]: inhibits hepatoblastoma cellular reproduction by inducing apoptosis
- inhibition of cell growth [3]: negligible

SMILES: O=[N+]([O-])c1ccc(O)c([N+](=O)[O-])c1 [DNP, dinitrophenol]
- reasonably well tolerated daily dose [4]: 3 to 5 mg/kg

SMILES: COC1=CC(c2ccc[nH]2)=N/C1=C\c1[nH]c(C)c2c1C(C)CCC2 (stereo not drawn) [cPrG-HCl, Cycloprodigiosin hydrochloride]
- IC50 [5]: 8.4 µM
- pathological changes in organs [6]: No pathological changes were observed in any organs
- serum alanine transaminase levels [6]: remained within normal limits
- tumor growth ([6]; compared with the control after 8 days): significantly inhibited tumor growth
- pHi ([7]; lowered pHi): < 6.8
- apoptosis ([7]; subG(1) population, DNA fragmentation, chromatin condensation): induced apoptosis

SMILES: CC[C@@H](C(N)=O)N1CCCC1=O [LEV, levetiracetam]
- inhibition of K+ channels [8]: less than 20%
- alkalinization upon removal of extracellular Cl− ([9]; 50, preincubation 15 min, n=5): no effect
- reduction of high-voltage-activated calcium currents [10]: about 20%
- effect on pHi ([11]; 1 μM (n=4)): without any effect
- effect on steady-state pHi ([11]; 10 μM (n=3)): Small shifts
- steady-state pHi ([11]; 50 μM, Na+-free CO2/HCO3−-buffered solution, n=5): not likely further influenced
- mean acidification of steady-state pHi, nonresponding neurons excluded ([11]; 50 μM, neuronal somata, CO2/HCO3−-buffered solution, n=8): 0.19±0.07 pH units
- mean acidification of steady-state pHi ([11]; 50 μM, neuronal somata, CO2/HCO3−-buffered solution, n=11): 0.14±0.09 pH units
- decrease of pHi ([11]; 50 μM, nominal absence of extracellular CO2/HCO3−, HEPES pH 7.4, n=5): abolished
- decrease of pHi of larger regions ([11]; 50 μM, stratum pyramidale, CO2/HCO3−-buffered solution, n=5): 0.11±0.04 pH units
- effect on pHi ([11]; increase to 100 μM (n=4)): without additional effect
- steady-state pHi after preincubation [12]: 6.82
- reduction of N-type Ca2+ channel currents [13]: ca. 15%

SMILES: Cc1nc(Nc2ccc(F)cc2)nc(N2CCc3ccccc3C2C)c1C (stereo not drawn) [revaprazan]
- time to block H+ secretion [14]: within a half-hour

SMILES: O=C([O-])O.[Na+] [sodium bicarbonate]
- side effects ([15]; daily, 5 grams to 30 grams per day): bloating and abdominal discomfort
- expansion of primary tumors [16]: not influencing the expansion of primary tumors
- metastases in lung, visceral organs, and lymph nodes [16]: markedly reduces the number and size of metastases

SMILES: CC(=O)/N=c1/sc(S(N)(=O)=O)nn1C [Methazolamide]
- side effects ([15]; every other day, 50 mg per day up to 400 mg per day): tingling in extremities, acidosis, fatigue, and nausea

SMILES: COc1ccc2[nH]c([S+]([O-])Cc3ncc(C)c(OC)c3C)nc2c1 (stereo not drawn) [omeprazole]
- growth-retardant impact of cisplatin [17]: potentiate the growth-retardant impact of cisplatin

SMILES: CCN(c1nc(N)c(C(=O)N=C(N)N)nc1Cl)C(C)C [EIPA, 5-(N-ethyl-N-isopropyl)-amiloride]
- potency relative to amiloride [18]: about 200 times

SMILES: N=C(N)NC(=O)c1nc(Cl)c(N)nc1N [amiloride]
- doses found effective [19]: ≥ 0.3 mg/kg body weight per day

SMILES: COCCO[C@@H]1c2ccn3c(C)c(C)nc3c2N[C@H](c2ccccc2)[C@H]1O [Soraprazan]
- time to block H+ secretion [14]: within a half-hour

SMILES: O=S(=O)(O)c1cc(N=C=S)ccc1C=Cc1ccc(N=C=S)cc1S(=O)(=O)O [DIDS, 4,4′-diisothiocyanato-stilbene-2,2′-disulfonic acid]
- alkalinization upon removal of extracellular Cl− ([9]; 500 μM, pretreatment 15 min, n=3): completely abolished
